Results as given in ChEMBL document CHEMBL1201862, “PubChem BioAssay data set” (2004).
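Assay format: 96-well plates, 48-hour exposure. Here, GI50 denotes the concentration required for 50% inhibition of growth.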 The source made the active and inactive calls. Rule as the data show it: active = GI50 up to about 1.1 µM and inactive = higher.

Tests used:
Test in all cases: NCI tumour cell line growth inhibition, 48 h
[1] = test system: BT-549
[2] = test system: EKVX
[3] = test system: HCT-116
[4] = test system: HOP-62
[5] = test system: K562
[6] = test system: KM12
[7] = test system: M14
[8] = test system: MCF7
[9] = test system: MDA-N
[10] = test system: MOLT-4
[11] = test system: NCI-H226
[12] = test system: NCI-H522
[13] = test system: OVCAR-8
[14] = test system: SF-295
[15] = test system: SK-MEL-5
[16] = test system: U-251
[17] = test system: UACC-62
[18] = test system: RXF 393

Compound	GI50 [1]	GI50 [2]	GI50 [3]	GI50 [4]	GI50 [5]	GI50 [6]	GI50 [7]	GI50 [8]	GI50 [9]	GI50 [10]	GI50 [11]	GI50 [12]	GI50 [13]	GI50 [14]	GI50 [15]	GI50 [16]	GI50 [17]	GI50 [18]
O=C(O)c1c(CC(Cc2ccc3c(c2)CCC3)C(=O)O)ccc2c1CCC2 (stereo not given)	> 100 µM (inactive)	> 100 µM (inactive)	> 100 µM (inactive)	> 100 µM (inactive)	> 100 µM (inactive)	> 100 µM (inactive)	> 100 µM (inactive)	> 100 µM (inactive)	> 100 µM (inactive)	> 100 µM (inactive)	> 100 µM (inactive)	> 100 µM (inactive)	> 100 µM (inactive)	> 100 µM (inactive)	> 100 µM (inactive)	> 100 µM (inactive)	–	–
C=CCOC(=O)C1=C(CCC[C@@H](C)O[Si](C)(C)C(C)(C)C)N=C(N)N2[C@H](CCO)CC[C@@H]12	21.8 µM (inactive)	–	8.28 µM (inactive)	14.1 µM (inactive)	6.34 µM (inactive)	11.3 µM (inactive)	13.9 µM (inactive)	7.69 µM (inactive)	17 µM (inactive)	10.5 µM (inactive)	18.5 µM (inactive)	12.7 µM (inactive)	–	12.6 µM (inactive)	12.4 µM (inactive)	12.3 µM (inactive)	15.8 µM (inactive)	–
CC(=O)Nc1ccccc1S(=O)(=O)c1c(-c2c(C)c(Cl)c(C)c(Cl)c2C)noc1C	33.9 µM (inactive)	48.9 µM (inactive)	51.5 µM (inactive)	19.7 µM (inactive)	33.3 µM (inactive)	> 100 µM (inactive)	74.3 µM (inactive)	35.1 µM (inactive)	37.2 µM (inactive)	24.2 µM (inactive)	27 µM (inactive)	49.5 µM (inactive)	37 µM (inactive)	32.8 µM (inactive)	> 100 µM (inactive)	31.6 µM (inactive)	28.9 µM (inactive)	28.8 µM (inactive)
COC(=O)C1=C(C(=O)OC)SC2(S1)C(C(=O)OC)=C(C(=O)OC)Sc1c2ss/c1=N\c1ccc(Cl)cc1	1.91 µM (inactive)	1.45 µM (inactive)	0.283 µM (active)	1.67 µM (inactive)	1.31 µM (inactive)	0.767 µM (active)	1.43 µM (inactive)	1.11 µM (active)	0.47 µM (active)	0.336 µM (active)	1.79 µM (inactive)	0.352 µM (active)	1.32 µM (inactive)	2.19 µM (inactive)	1.39 µM (inactive)	1.35 µM (inactive)	1.19 µM (inactive)	0.256 µM (active)
COc1ccc2c(c1)c1c(n2CCN2CCOCC2)-c2ccccc2CC1	> 100 µM (inactive)	–	33.5 µM (inactive)	45.4 µM (inactive)	15.3 µM (inactive)	32.8 µM (inactive)	41.4 µM (inactive)	30.8 µM (inactive)	32.2 µM (inactive)	17.1 µM (inactive)	21.4 µM (inactive)	35.4 µM (inactive)	34.2 µM (inactive)	27.9 µM (inactive)	20.7 µM (inactive)	29.9 µM (inactive)	> 100 µM (inactive)	34 µM (inactive)
COC(=O)Cn1c(=O)oc2nc(-c3ccccc3)cc(C(F)(F)F)c21	> 100 µM (inactive)	70.6 µM (inactive)	42.9 µM (inactive)	> 100 µM (inactive)	–	69.8 µM (inactive)	> 100 µM (inactive)	> 100 µM (inactive)	> 100 µM (inactive)	23.6 µM (inactive)	35.8 µM (inactive)	25.3 µM (inactive)	18.3 µM (inactive)	45.3 µM (inactive)	26.7 µM (inactive)	61.2 µM (inactive)	> 100 µM (inactive)	> 100 µM (inactive)
CC(=O)OC(C)c1cc2c(s1)C(=O)c1sccc1C2=O (stereo not given)	0.7 µM (active)	2.03 µM (inactive)	1.46 µM (inactive)	1.03 µM (active)	2.69 µM (inactive)	1.75 µM (inactive)	0.14 µM (active)	0.995 µM (active)	0.0735 µM (active)	2.7 µM (inactive)	2.04 µM (inactive)	1.27 µM (inactive)	1.81 µM (inactive)	0.851 µM (active)	0.139 µM (active)	0.944 µM (active)	–	1.56 µM (inactive)
Cn1c(=O)n2c(-c3ccccc3)c(-c3ccccc3)n2c1=O	> 100 µM (inactive)	> 100 µM (inactive)	> 100 µM (inactive)	> 100 µM (inactive)	> 100 µM (inactive)	> 100 µM (inactive)	> 100 µM (inactive)	> 100 µM (inactive)	> 100 µM (inactive)	> 100 µM (inactive)	> 100 µM (inactive)	–	> 100 µM (inactive)	> 100 µM (inactive)	> 100 µM (inactive)	> 100 µM (inactive)	> 100 µM (inactive)	> 100 µM (inactive)
CCOC(=O)/C(C(=O)Nc1ccc(Cl)cc1)=C(/N)N1CCOCC1	> 100 µM (inactive)	> 100 µM (inactive)	> 100 µM (inactive)	> 100 µM (inactive)	> 100 µM (inactive)	> 100 µM (inactive)	> 100 µM (inactive)	> 100 µM (inactive)	> 100 µM (inactive)	> 100 µM (inactive)	> 100 µM (inactive)	> 100 µM (inactive)	> 100 µM (inactive)	> 100 µM (inactive)	–	> 100 µM (inactive)	> 100 µM (inactive)	> 100 µM (inactive)
COc1cc(CC(C)NC(C)=O)cc(OC)c1 (stereo not given)	> 100 µM (inactive)	–	> 100 µM (inactive)	> 100 µM (inactive)	> 100 µM (inactive)	> 100 µM (inactive)	> 100 µM (inactive)	> 100 µM (inactive)	> 100 µM (inactive)	> 100 µM (inactive)	> 100 µM (inactive)	> 100 µM (inactive)	> 100 µM (inactive)	> 100 µM (inactive)	> 100 µM (inactive)	> 100 µM (inactive)	> 100 µM (inactive)	> 100 µM (inactive)
O=C(CNc1cccc(Cl)c1)Nn1c(-c2ccccc2)nc2ccccc2c1=O	2.16 µM (inactive)	17.9 µM (inactive)	1.77 µM (inactive)	14.1 µM (inactive)	2.66 µM (inactive)	10.9 µM (inactive)	2.09 µM (inactive)	2.04 µM (inactive)	9.59 µM (inactive)	1.35 µM (inactive)	13.3 µM (inactive)	1.42 µM (inactive)	4.34 µM (inactive)	14.1 µM (inactive)	1.53 µM (inactive)	1.74 µM (inactive)	1.69 µM (inactive)	–
CC1=CC(=O)c2ccc(C)cc2C1=O [CHIMAPHILIN]	11.6 µM (inactive)	7.1 µM (inactive)	4.44 µM (inactive)	17.4 µM (inactive)	3.65 µM (inactive)	5.96 µM (inactive)	16.3 µM (inactive)	3.05 µM (inactive)	0.394 µM (active)	2.41 µM (inactive)	13.8 µM (inactive)	4.09 µM (inactive)	10.6 µM (inactive)	17.2 µM (inactive)	3.82 µM (inactive)	11.5 µM (inactive)	8.18 µM (inactive)	–
NCOC(=O)Cc1ccc(Br)cc1	> 100 µM (inactive)	> 100 µM (inactive)	> 100 µM (inactive)	> 100 µM (inactive)	> 100 µM (inactive)	–	> 100 µM (inactive)	> 100 µM (inactive)	> 100 µM (inactive)	17.4 µM (inactive)	> 100 µM (inactive)	> 100 µM (inactive)	> 100 µM (inactive)	> 100 µM (inactive)	> 100 µM (inactive)	> 100 µM (inactive)	> 100 µM (inactive)	> 100 µM (inactive)
CCN(CC)CCCNc1n[n+]([O-])c2ccccc2[n+]1[O-]	17.3 µM (inactive)	–	11 µM (inactive)	–	6.93 µM (inactive)	15 µM (inactive)	22.4 µM (inactive)	3.92 µM (inactive)	11.9 µM (inactive)	2.73 µM (inactive)	20.5 µM (inactive)	8.22 µM (inactive)	8.51 µM (inactive)	15 µM (inactive)	1.52 µM (inactive)	18.5 µM (inactive)	8.43 µM (inactive)	13 µM (inactive)
CC(=O)OCC1(CNc2nc(N)ncc2C#N)CC(CCc2ccccc2)C1 (stereo not given)	87.1 µM (inactive)	6.01 µM (inactive)	5.43 µM (inactive)	14.4 µM (inactive)	2.2 µM (inactive)	> 100 µM (inactive)	–	12 µM (inactive)	28.6 µM (inactive)	2.89 µM (inactive)	42 µM (inactive)	20.2 µM (inactive)	50.2 µM (inactive)	7.66 µM (inactive)	1.62 µM (inactive)	31.3 µM (inactive)	46 µM (inactive)	27.5 µM (inactive)
Cc1nc(O)nc(N/N=C/c2ccc(Cl)cc2)c1C(=O)NC(C)(CO)CO	> 100 µM (inactive)	> 100 µM (inactive)	> 100 µM (inactive)	> 100 µM (inactive)	> 100 µM (inactive)	> 100 µM (inactive)	> 100 µM (inactive)	> 100 µM (inactive)	> 100 µM (inactive)	> 100 µM (inactive)	> 100 µM (inactive)	–	> 100 µM (inactive)	> 100 µM (inactive)	> 100 µM (inactive)	> 100 µM (inactive)	> 100 µM (inactive)	> 100 µM (inactive)
